Assay results as given in patent US8952054B2, “Small molecule inhibitors of MUC1 and methods of identifying the same” (Dana-Farber Cancer Institute, Inc., priority 2010, dated 2015).
“Also recorded” adds a separate entry of the source.

Legend:
[1] = tested on: MCF-10A cells; test: MCF-10A cell number (MTS), caspase-9 cleavage and PI uptake; format: cell-based, human; settings: 3 d
Description: FIGS. 13A-D—Apigenin downregulates MUC1 and confers death of MCF-10A cells. (FIG. 13A) MCF-10A cells were treated with the indicated concentrations of apigenin and baicalein for 3 d, washed and then treated for an additional 3 d. Lysates were immunoblotted with the indicated antibodies. (FIG. 13B) MCF-10A cells were treated with the indicated concentrations apigenin (circles) and baicalein (squares) for 3 d. Viable cell number was determined by the MTS assay. The results (mean+SD of 3 determinations) are expressed as percentage of control growth in the presence of DMSO. (FIG. 13C) MCF-10A cells were treated with DMSO, 75 μM apigenin or 75 μM baicalein for 3 d. Lysates were subjected to immunoblotting with the indicated antibodies. (FIG. 13D) MCF-10A cells were treated with DMSO, 75 μM apigenin or 75 μM baicalein for 3 d, stained with propidium iodide and analyzed by flow cytometry.

[2] = target: T1, GFP-MUC1-CD and Flag-MUC1-CD (Homo sapiens, UniProt P15941); test: Inhibition of dimerization of MUC1-CD in cyto (coprecipitation in transfected 293 cells); format: cell-based; settings: for formation of MUC1-CD dimers (anti-Flag precipitates, anti-GFP blot): 75 μM for 3 days
T1 construct: expressed in transfected cells; host or cells: HEK 293 cells (no endogenous MUC1)
T1 sequence (P15941 1184-1255 limits assumed): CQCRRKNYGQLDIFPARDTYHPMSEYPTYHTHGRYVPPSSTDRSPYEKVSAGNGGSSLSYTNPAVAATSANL
Description: (§1) FIGS. 1A-D. MUC1/CQC peptide blocks MUC1 oligomerization. (FIG. 1A) Schematic representation of the MUC1-C subunit and the 72-amino acid sequence of MUC1-CD (SEQ ID NO: 1) are shown. The N-terminal 15 amino acids (shaded sequence) MUC1/CQC (SEQ ID NO: 10) and mutated MUC1/AQA (SEQ ID NO: 11) peptides were synthesized with the poly-dArg transduction domain. (FIG. 1B) His-MUC1-CD (1.4 mg/ml) was immobilized on a sensor chip in a BIAcore. MUC1/CQC was injected over the chip at 10 μM. Raw binding data were analyzed by BIAevaluation software version 3.0 and fit to a 1:1 Languir binding model. (FIG. 1C) Purified His-MUC1-CD (1.5 mg/ml) was incubated with PBS, 200 μM MUC1/CQC or 200 μM MUC1/AQA for 1 h at room temperature. The proteins were separated in a non-reducing SDS-polyacrylamide gel and analyzed by immunoblotting with anti-MUC1-C. (FIG. 1D) 293 cells were transiently transfected to express an empty vector or GFP-MUC1-CD and Flag-MUC1-CD. At 48 h after transfection, the cells were treated with 5 μM MUC1/CQC or MUC1/AQA for 3 d. The cells were then harvested for immunoblotting with anti-MUC1-C (left panel). Whole cell lysates were also precipitated with anti-Flag and the precipitates were immunoblotted with the indicated antibodies (right panels).
FIG. 8—293 cells transiently transfected to express an empty vector or GFP-MUC1-CD and Flag-MUC1-CD. At 48 he after transfection, cells were left untreated (control), or treated with 5 μmol/L GO-201 or CP-1 each day for 3 days. The cells were then harvested for immunoblotting with anti-MUC1-C (left). Whole-cell lysates were also precipitated with anti-Flag and the precipitates were immunoblotted with the indicated antibodies (right).
(§2) FIGS. 12A-D—Apigenin is an inhibitor of MUC1-CD dimerization in vitro and in cells. (FIG. 12A) Structures of apigenin and its analogue baicalein. Using the in vitro screening assay, dimerization of MUC1-CD was assessed in the presence of 100 μM apigenin or 100 μM baicalein each dissolved in 0.1% DMSO. The results (mean±SD of 3 determinations) are expressed as percentage of control dimerization in the presence of DMSO alone. (FIG. 12B) MUC1-CD dimerization was assessed in the presence of the indicated concentrations of apigenin in the in vitro screening assay. […] (FIG. 12C) Soluble MUC1-CD was incubated in the presence of 1% DMSO, 1 mM apigenin or 1 mM baicalein for 1 h at room temperature. Monomers and dimmers were assessed by electrophoresis in a non-reducing gel and immunoblotting with anti-MUC1-C. (FIG. 12D) 293 cells were transiently transfected to express an empty vector or GFP-MUC1-CD and Flag-MUC1-CD. At six hours after transfection, the cells were left untreated, and treated with 75 μM apigenin or baicalein for 3 days. Whole-cell lysates were precipitated with anti-Flag, and the precipitates were immunoblotted with the indicated antibodies.
Two different versions of MUC1-CD vectors have been generated for transformation of cells: GFP-MUC1-CD and Flag-MUC1-CD. […] At 48 hr post-transfection, cells are incubated with the selected compounds from the primary and/or secondary screening assays. Cells are then harvested and used for immunoblotting with anti-MUC1-C. Total cell lysates are subjected to immunoprecipitation with anti-GFP antibody and the adsorbates are analyzed by immunoblotting with anti-Flag antibody.
293 cells were transfected with vectors expressing GFP, GFP-MUC1-CD or Flag-MUC1-CD in the presence of Lipofectamine as described (Leng et al., 2007).
The inventors generated two different versions of MUC1-CD vectors for transfecting into cells: GFP-MUC1-CD and Flag-MUC1-CD. […] At 48 hours post-transfection, cells are incubated with selected compounds. The cells were harvested for immunoblotting with anti-MUC1-C. Total cell lysates are subjected to immunoprecipitation with anti-GFP antibody and the adsorbates are analyzed by immunoblotting with anti-Flag antibody. An inhibitor of MUC1-CD dimerization will inhibit dimerization of MUC1-CD in cyto. […]

[3] = target: T2, His-MUC1-CD (Homo sapiens, UniProt P15941); test: In-gel in vitro MUC1-CD dimerization/oligomerization assay (non-reducing SDS-PAGE, anti-MUC1-C immunoblot); format: biochemical; settings: 1 h at room temperature; for formation of MUC1-CD dimers, soluble protein: 1 mM compound
T2 construct: made in house
T2 sequence (P15941 1184-1255): T1 sequence (P15941 1184-1255 limits assumed)
Description: as §1
FIG. 7—GO-201 blocks MUC1 oligomerization. Purified His-MUC1-CD was incubated with PBS (control), GO-201, or CP-1 for 1 hr at room temperature. The proteins were separated in a non-reducing SDS-polyacrylamide gel (SDS-PAGE) and analyzed by immunoblotting with anti-MUC1-C antibodies. The formation of dimers and tetramers was inhibited by incubation with GO-201.
as §2, with “At six hours after transfection, the cells were left untreated, and treated with 75 μM apigenin or baicalein for 3 days. Whole-cell lysates were precipitated with anti-Flag, and the precipitates were immunoblotted with the indicated antibodies.” left out
(§3) Purified His-tagged MUC1-CD protein also forms dimers and oligomers when incubated in a buffer in vitro, and these can be detected by electrophoresis in polyacrylamide gels. […] Following extensive washings, the proteins are separated in a non-reducing SDS-polyacrylamide gel and analyzed by immunoblotting with anti-MUC1-CD antibody.
As a positive control for validation of this assay for secondary screening, purified His-MUC1-CD is incubated with either PBS or with GO-201 (CQC peptide) for 1 hr at room temperature. The proteins are separated in a non-reducing SDS-polyacrylamide gel and analyzed by immunoblotting with anti-MUC1-CD antibody.
as §3, with “protein” for “protein also”, “as” for “and these can be”, “antibody. […]” for “antibody.”

[4] = transfected 293 cells, 5 μM peptide for 3 d

formation of MUC1-CD dimers (anti-Flag precipitates, anti-GFP blot) ([2]; transfected 293 cells)	formation of MUC1-CD dimers, soluble protein [3]	interaction between Flag-MUC1-CD and GFP-MUC1-CD [2, 4]	interaction between Flag-MUC1-CD and GFP-MUC1-CD ([2]; transfected HEK 293 cells, 5 μM GO-201 or CP-1 each day for 3 days)	interaction between Flag-MUC1-CD and GFP-MUC1-CD ([2]; transfected HEK 293 cells, 5 mM GO-201 as printed)	Molecule	caspase-9 cleavage ([1]; 75 μM)	cell number (MTS) [1]	His-MUC1-CD oligomer formation ([3]; 200 μM peptide)	cell membrane integrity (PI uptake) ([1]; 75 μM)	His-MUC1-CD oligomer formation ([3]; GO-201 positive control)
not	little effect				O=c1cc(-c2ccccc2)oc2cc(O)c(O)c(O)c12 [Baicalein, 5,6,7-trihydroxyflavone, reference compound]	not	substantially less effective			
		no apparent effect			MUC1/AQA: control peptide in which the CQC motif was altered to AQA (SEQ ID NO: 11) (AQARRKNYGQLDIFP) [reference compound]			little if any effect		
completely blocked	completely blocked				O=c1cc(-c2ccc(O)cc2)oc2cc(O)cc(O)c12 [Apigenin, 4′,5,7-trihydroxyflavone]	caspase-9 cleavage	decreased MCF-10A cell number		loss of cell membrane integrity	
		disruption of the interaction	disruption of the interaction	disruption of the interaction	CC[C@H](C)[C@H](NC(=O)[C@H](CC(=O)O)NC(=O)[C@H](CC(C)C)NC(=O)[C@H](CCC(N)=O)NC(=O)CNC(=O)[C@H](Cc1ccc(O)cc1)NC(=O)[C@H](CC(N)=O)NC(=O)[C@H](CCCCN)NC(=O)[C@H](CCCNC(=N)N)NC(=O)[C@H](CCCNC(=N)N)NC(=O)[C@H](CS)NC(=O)[C@H](CCC(N)=O)NC(=O)[C@H](CS)NC(=O)[C@@H](CCCNC(=N)N)NC(=O)[C@@H](CCCNC(=N)N)NC(=O)[C@@H](CCCNC(=N)N)NC(=O)[C@@H](CCCNC(=N)N)NC(=O)[C@@H](CCCNC(=N)N)NC(=O)[C@@H](CCCNC(=N)N)NC(=O)[C@@H](CCCNC(=N)N)NC(=O)[C@@H](CCCNC(=N)N)NC(=O)[C@H](N)CCCNC(=N)N)C(=O)N[C@@H](Cc1ccccc1)C(=O)N1CCC[C@H]1C(=O)O [MUC1/CQC]			substantially decreased oligomer formation		substantially decreases oligomer formation; also recorded: inhibited
